From patent publication US20180193412A1, “Method of In Vivo Treatment” (Hexima Limited, priority 2015, published 2018)

Legend:
[1] = system: M. fulvum; test: Inhibition of growth of Microsporum fulvum by plant defensins (microtitre A595 antifungal assay); assay type: cell-based; conditions: for IC50 against M. fulvum: ½ strength PDB, 30° C., A595
Experimental: (§1) The inhibitory effects of the plant defensins on the growth of Trichophyton rubrum, T. interdigitale, Microsporum fulvum and C. albicans (all obtained from the National Mycology Reference Centre, South Australia Pathology at the Women's and Children's Hospital, Adelaide, Australia) are measured essentially as described by Broekaert et al. (1990) FEMS Microbiol Lett 69:55-59.
(§2) Spores of T. rubrum, T. interdigitale and M. fulvum are isolated from sporulating fungus growing on ½ strength Sabouraud dextrose agar. Spores were removed from the plates by the addition of ½ strength potato dextrose broth (PDB). C. albicans cells are grown in Yeast Peptone Broth (YPD) for 16 h. Spore and cell concentrations are measured using a hemocytometer.
(§3) Antifungal assays are conducted in 96 well microtitre plates essentially as herein described. Wells are loaded with 20 μL of filter sterilized (0.22 Ξ m syringe filter, Millipore) defensin (10× stock for each final concentration) or water and 80 μL of 5×10^4 spores/mL (T. rubrum, T. interdigitale, M. fulvum) or 5,000 cells/mL (C. albicans) in ½ strength PDB. The plates are incubated at 30° C. Fungal growth is assayed by measuring optical density at 595 nm (A595) using a microtitre plate reader (SpectraMax Pro M2; Molecular Devices. Growth is allowed to proceed until the optical density (OD) of the fungus in the absence of any test defensin reached an OD of 0.2. Each test is performed in duplicate.

[2] = system: T. albicans; test: Inhibition of growth of C. albicans by plant defensins, Example 1 (microtitre A595 antifungal assay); assay type: cell-based; conditions: for IC50 against T. albicans: Table 3, ½ strength PDB, 30° C., A595
Experimental: as §1, §2, §3

[3] = system: C. albicans; test: Inhibition of growth of Candida albicans, Example 2 antifungal assay; assay type: cell-based; conditions: Table 4; ½ strength PDB, 30° C., A595
Experimental: (§4) The inhibitory effects of the plant defensins on the growth of Candida albicans, Aspergillus fumigatus (obtained from the National Mycology Reference Centre, South Australia Pathology at the Women's and Children's Hospital, Adelaide, Australia), C. glabrata, C. tropicalis, A. flavus, A. niger, A. fumigants, Cryptococcus neoformans and C. gattii (obtained from Dee Carter, University of Sydney, New South Wales, Australia) are measured essentially as described by Broekaert et al. (1990) FEMS Microbiol Lett 69:55-59.
as §2, with “A. flavus. A. niger” for “T. rubrum, T. interdigitale”, “A. fumigatus” for “M. fulvum”, “albicans, C. glabrata, C. tropicalis, C. neoformans and C. gattii” for “albicans”
as §3, with “μm” for “Ξ m”, “(A. flavus, A. niger, A. fumigatus),” for “(T. rubrum, T. interdigitale, M. fulvum) or”, “albicans, C. glabrata, C. tropicalis) or 1×10^6 cells/mL (C. neoformans, C. gattii)” for “albicans)”

[4] = system: C. glabrata; test: Inhibition of growth of C. glabrata, Example 2 antifungal assay; assay type: cell-based; conditions: ½ strength PDB, 30° C., A595
Experimental: as §4
as §2, with “A. flavus. A. niger” for “T. rubrum, T. interdigitale”, “A. fumigatus” for “M. fulvum”, “albicans, C. glabrata, C. tropicalis, C. neoformans and C. gattii” for “albicans”
as §3, with “μm” for “Ξ m”, “(A. flavus, A. niger, A. fumigatus),” for “(T. rubrum, T. interdigitale, M. fulvum) or”, “albicans, C. glabrata, C. tropicalis) or 1×10^6 cells/mL (C. neoformans, C. gattii)” for “albicans)”

[5] = system: C. tropicalis; test: Inhibition of growth of C. tropicalis, Example 2 antifungal assay; assay type: cell-based; conditions: ½ strength PDB, 30° C., A595
Experimental: as §4
as §2, with “A. flavus. A. niger” for “T. rubrum, T. interdigitale”, “A. fumigatus” for “M. fulvum”, “albicans, C. glabrata, C. tropicalis, C. neoformans and C. gattii” for “albicans”
as §3, with “μm” for “Ξ m”, “(A. flavus, A. niger, A. fumigatus),” for “(T. rubrum, T. interdigitale, M. fulvum) or”, “albicans, C. glabrata, C. tropicalis) or 1×10^6 cells/mL (C. neoformans, C. gattii)” for “albicans)”

[6] = system: A. niger; test: Inhibition of growth of A. niger, Example 2 antifungal assay; assay type: cell-based; conditions: ½ strength PDB, 30° C., A595
Experimental: as §4
as §2, with “A. flavus. A. niger” for “T. rubrum, T. interdigitale”, “A. fumigatus” for “M. fulvum”, “albicans, C. glabrata, C. tropicalis, C. neoformans and C. gattii” for “albicans”
as §3, with “μm” for “Ξ m”, “(A. flavus, A. niger, A. fumigatus),” for “(T. rubrum, T. interdigitale, M. fulvum) or”, “albicans, C. glabrata, C. tropicalis) or 1×10^6 cells/mL (C. neoformans, C. gattii)” for “albicans)”

[7] = system: A. fumigatus; test: Inhibition of growth of Aspergillus fumigatus, Example 2 antifungal assay; assay type: cell-based; conditions: ½ strength PDB, 30° C., A595
Experimental: as §4
as §2, with “A. flavus. A. niger” for “T. rubrum, T. interdigitale”, “A. fumigatus” for “M. fulvum”, “albicans, C. glabrata, C. tropicalis, C. neoformans and C. gattii” for “albicans”
as §3, with “μm” for “Ξ m”, “(A. flavus, A. niger, A. fumigatus),” for “(T. rubrum, T. interdigitale, M. fulvum) or”, “albicans, C. glabrata, C. tropicalis) or 1×10^6 cells/mL (C. neoformans, C. gattii)” for “albicans)”

[8] = system: C. neoformans; test: Inhibition of growth of Cryptococcus neoformans, Example 2 antifungal assay; assay type: cell-based; conditions: ½ strength PDB, 30° C., A595
Experimental: as §4
as §2, with “A. flavus. A. niger” for “T. rubrum, T. interdigitale”, “A. fumigatus” for “M. fulvum”, “albicans, C. glabrata, C. tropicalis, C. neoformans and C. gattii” for “albicans”
as §3, with “μm” for “Ξ m”, “(A. flavus, A. niger, A. fumigatus),” for “(T. rubrum, T. interdigitale, M. fulvum) or”, “albicans, C. glabrata, C. tropicalis) or 1×10^6 cells/mL (C. neoformans, C. gattii)” for “albicans)”

[9] = system: C. gattii; test: Inhibition of growth of C. gattii, Example 2 antifungal assay; assay type: cell-based; conditions: ½ strength PDB, 30° C., A595
Experimental: as §4
as §2, with “A. flavus. A. niger” for “T. rubrum, T. interdigitale”, “A. fumigatus” for “M. fulvum”, “albicans, C. glabrata, C. tropicalis, C. neoformans and C. gattii” for “albicans”
as §3, with “μm” for “Ξ m”, “(A. flavus, A. niger, A. fumigatus),” for “(T. rubrum, T. interdigitale, M. fulvum) or”, “albicans, C. glabrata, C. tropicalis) or 1×10^6 cells/mL (C. neoformans, C. gattii)” for “albicans)”

[10] = system: E. coli; assay type: cell-based, Escherichia coli; conditions: for IC50: Mueller-Hinton Broth, 37° C., 18 hours, up to 20 μM, read-out: IC50 against E. coli; for Inhibition of growth of E. coli: at the concentrations tested (0.3125-20 μM)
Experimental: (§5) A single E. coli or B. subtilis colony was used to inoculate 5 ml of Luria-Bertani media and grown overnight at 37° C. The following day, the optical density of the culture was measured and the bacteria diluted to an optical density at 600 nm (OD600) of 0.01 in Mueller-Hinton Broth. Diluted E. coli or B. subtilis were added to 96-well plates with defensins at concentrations of 20 μM, 10 μM, 5 μM, 2.5 μM, 1.25 μM, 0.625 μM or 0.3125 μM. Plates were read at OD595 to obtain time zero data points. Plates were incubated at 37° C. for 18 hours before reading again at OD595 to assess the amount of bacterial growth.

[11] = system: B. subtilis; test: Inhibition of the growth of Bacillus subtilis (OD595, 18 hours); assay type: cell-based; conditions: for IC50: Mueller-Hinton Broth, 37° C., 18 hours, up to 20 μM, read-out: IC50 against B. subtilis; for Inhibition of growth of B. subtilis: at the concentrations tested (0.3125-20 μM)
Experimental: as §5

[12] = system: T. rubrum; test: Inhibition of growth of Trichophyton rubrum by plant defensins (microtitre A595 antifungal assay); assay type: cell-based; conditions: ½ strength PDB, 30° C.
Experimental: as §1, §2, §3

[13] = system: A. flavus; test: Inhibition of growth of A. flavus, Example 2 antifungal assay; assay type: cell-based; conditions: ½ strength PDB, 30° C., A595
Experimental: as §4
as §2, with “A. flavus. A. niger” for “T. rubrum, T. interdigitale”, “A. fumigatus” for “M. fulvum”, “albicans, C. glabrata, C. tropicalis, C. neoformans and C. gattii” for “albicans”
as §3, with “μm” for “Ξ m”, “(A. flavus, A. niger, A. fumigatus),” for “(T. rubrum, T. interdigitale, M. fulvum) or”, “albicans, C. glabrata, C. tropicalis) or 1×10^6 cells/mL (C. neoformans, C. gattii)” for “albicans)”

[14] = system: Trichophyton rubrum, T. interdigitale, Microsporum fulvum and C. albicans; test: Inhibition assays of Example 1, summary across the range of fungal pathogens; assay type: cell-based; conditions: summary of Table 3, at the concentrations tested
Experimental: as §1, §2, §3

[15] = system: T. interdigitale; test: Inhibition of growth of T. interdigitale by plant defensins (microtitre A595 antifungal assay); assay type: cell-based, Trichophyton interdigitale; conditions: ½ strength PDB, 30° C.
Experimental: as §1, §2, §3

Row | Substance | Inhibition of M. fulvum ([1]; summary of Table 3) | IC50 against M. fulvum [1] [µg/mL] | IC50 against T. albicans [2] [µg/mL] | Inhibition of C. albicans ([2]; summary of Table 3) | IC50 against C. albicans [3] [µg/mL] | IC50 against C. glabrata [4] [µg/mL] | IC50 against C. tropicalis [5] [µg/mL] | IC50 against A. niger [6] [µg/mL] | IC50 against A. fumigatus [7] [µg/mL] | IC50 against C. neoformans [8] [µg/mL] | IC50 against C. gattii [9] [µg/mL] | IC50 [10] [µM] | Inhibition of growth of E. coli [10] | IC50 [11] [µM] | Inhibition of growth of B. subtilis [11] | IC50 against T. rubrum [12] [µg/mL] | IC50 against A. flavus [13] [µg/mL] | Activity across the range of fungal pathogens [14] | IC50 against T. interdigitale [15] [µg/mL]
1 | HXL002: Class I plant defensin from Triticum aestivum (RDCLSQSHKFKGACLSSSNCAAVCRTENFPDGECHTHNFARKCFCKRAC; HXL002 Triticum aestivum) | very poor inhibitors | 50 | 35 | very poor inhibitors | 35 | 15 | 2 | 20 | 25 | 2.5 | 18 | > 20 | did not inhibit the growth | > 20 | did not inhibit the growth |  |  |  | 
2 | HXL001: Class I plant defensin from Zea mays (RHCLSQSHRFKGLCMSSNNCANVCQTENFPGGECKAEGATRKCFCKKIC; HXL001 Zea mays) |  | >100 | 35 |  | 35 | 32 | 6 | >100 | >100 | 10 | 40 | > 20 | did not inhibit the growth | > 20 | did not inhibit the growth | >100 | >100 | did not display any activity | 
3 | NaD1: Solanaceous Class II plant defensin from Nicotiana alata (RECKTESNTFPGICITKPPCRKACISEKFTDGHCSKILRRCLCTKPC; NaD1 Nicotiana alata) |  | 5.3 | 20 |  | 20 | 14 | 2.5 | 16 | 8 | 3 | 5 | > 20 | did not inhibit the growth |  | did not inhibit the growth | 8 | 20 |  | 10
4 | HXL009: Class I plant defensin from Zea mays (TVCMRHNNFYHGPCMSNKDCANSCVQHNLGVGGYCRGKIPFNKECMCTFEC; HXL009 Zea mays) |  | >100 | >100 |  | >100 | >100 | 12 | >100 | >100 | 8 | 38 | > 20 |  | > 20 |  |  | >100 | did not display any activity | 
